Data reported in US20070282007A1, “TREATMENT OF PAIN DISORDERS WITH trans 4-(3,4-DICHLOROPHENYL)-1,2,3,4-TETRAHYDRO-1-NAPHTHALENAMINE AND ITS FORMAMIDE” (SEPRACOR INC., priority 2006, published 2007).

Columns and labels:
[1] = biological target: T1, 5-HT1A (Homo sapiens, UniProt P08908); assay: In vitro radioligand binding assay, 5-HT1A
T1 sequence (P08908 1-422): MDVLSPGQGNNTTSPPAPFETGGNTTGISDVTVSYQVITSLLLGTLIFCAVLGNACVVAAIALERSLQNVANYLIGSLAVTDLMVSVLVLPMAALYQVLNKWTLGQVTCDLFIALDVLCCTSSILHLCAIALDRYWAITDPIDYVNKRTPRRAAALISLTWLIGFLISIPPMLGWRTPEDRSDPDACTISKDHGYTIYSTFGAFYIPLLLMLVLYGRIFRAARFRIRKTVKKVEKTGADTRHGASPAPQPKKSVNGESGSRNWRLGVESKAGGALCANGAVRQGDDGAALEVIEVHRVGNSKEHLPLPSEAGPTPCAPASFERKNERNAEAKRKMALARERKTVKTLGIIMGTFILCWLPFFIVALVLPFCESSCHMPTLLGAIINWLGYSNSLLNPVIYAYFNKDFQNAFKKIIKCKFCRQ

[2] = tested on: Beagle dogs; assay: Cardiovascular safety study in conscious telemetered dogs; format: in vivo; conditions: single oral doses 0.5, 1.5 and 5 mg/kg
Description: There were four animals/compound and each animal within the treatment group was exposed to the three doses (plus a empty capsule control), in a dose ramp-up manner with a minimum of 72 hours between doses.

[3] = biological target: T2, M5 (Homo sapiens, UniProt P08912); assay: In vitro radioligand binding assay, M5; conditions: read-out: Ki, M5
T2 sequence (P08912 1-532): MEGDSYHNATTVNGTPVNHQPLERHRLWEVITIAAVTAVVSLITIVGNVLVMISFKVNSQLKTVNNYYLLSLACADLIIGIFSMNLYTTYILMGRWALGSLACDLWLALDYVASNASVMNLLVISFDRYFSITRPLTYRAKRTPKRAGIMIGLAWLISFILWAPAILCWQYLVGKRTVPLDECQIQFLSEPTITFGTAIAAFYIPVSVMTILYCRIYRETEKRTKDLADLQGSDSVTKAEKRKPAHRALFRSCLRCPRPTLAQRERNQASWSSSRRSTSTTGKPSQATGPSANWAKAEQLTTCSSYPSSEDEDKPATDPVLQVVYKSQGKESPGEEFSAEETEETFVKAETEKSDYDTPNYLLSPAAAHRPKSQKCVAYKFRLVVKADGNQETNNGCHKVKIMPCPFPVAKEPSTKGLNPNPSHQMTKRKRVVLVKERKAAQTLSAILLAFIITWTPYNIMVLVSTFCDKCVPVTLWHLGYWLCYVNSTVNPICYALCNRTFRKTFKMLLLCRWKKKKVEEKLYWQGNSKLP

[4] = biological target: 5-HT2C (Homo sapiens, UniProt P28335); assay: In vitro radioligand binding assay, 5-HT2C
Chain of 5-HT2C (P28335 33-458, species assumed): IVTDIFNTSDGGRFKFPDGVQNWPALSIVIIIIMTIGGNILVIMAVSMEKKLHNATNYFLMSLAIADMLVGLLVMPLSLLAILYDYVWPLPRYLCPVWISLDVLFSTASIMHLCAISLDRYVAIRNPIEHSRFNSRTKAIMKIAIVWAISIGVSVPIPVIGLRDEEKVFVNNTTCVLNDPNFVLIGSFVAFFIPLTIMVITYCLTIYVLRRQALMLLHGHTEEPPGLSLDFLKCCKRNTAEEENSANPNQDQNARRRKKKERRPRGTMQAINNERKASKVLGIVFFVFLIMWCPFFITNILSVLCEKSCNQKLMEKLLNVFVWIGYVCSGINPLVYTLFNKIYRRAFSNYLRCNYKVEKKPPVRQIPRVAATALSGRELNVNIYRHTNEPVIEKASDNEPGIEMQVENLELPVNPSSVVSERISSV

[5] = biological target: D1 (Homo sapiens, UniProt P21728); assay: In vitro radioligand binding assay, D1
Chain of D1 (P21728 whole entry): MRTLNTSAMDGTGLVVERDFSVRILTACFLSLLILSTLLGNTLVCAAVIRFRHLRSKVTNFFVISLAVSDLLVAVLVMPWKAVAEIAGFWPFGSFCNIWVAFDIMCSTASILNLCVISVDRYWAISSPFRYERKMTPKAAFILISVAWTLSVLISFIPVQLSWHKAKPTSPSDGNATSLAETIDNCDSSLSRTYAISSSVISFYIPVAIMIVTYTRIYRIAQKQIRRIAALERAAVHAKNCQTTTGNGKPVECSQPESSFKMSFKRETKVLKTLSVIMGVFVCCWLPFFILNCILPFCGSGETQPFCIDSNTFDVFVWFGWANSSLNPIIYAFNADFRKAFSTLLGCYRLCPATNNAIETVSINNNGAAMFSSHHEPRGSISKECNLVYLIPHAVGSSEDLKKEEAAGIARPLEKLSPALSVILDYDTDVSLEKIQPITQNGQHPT

[6] = biological target: 5-HT1B (Homo sapiens, UniProt P28222); assay: In vitro radioligand binding assay, 5-HT1B
Chain of 5-HT1B (P28222 whole entry, species assumed): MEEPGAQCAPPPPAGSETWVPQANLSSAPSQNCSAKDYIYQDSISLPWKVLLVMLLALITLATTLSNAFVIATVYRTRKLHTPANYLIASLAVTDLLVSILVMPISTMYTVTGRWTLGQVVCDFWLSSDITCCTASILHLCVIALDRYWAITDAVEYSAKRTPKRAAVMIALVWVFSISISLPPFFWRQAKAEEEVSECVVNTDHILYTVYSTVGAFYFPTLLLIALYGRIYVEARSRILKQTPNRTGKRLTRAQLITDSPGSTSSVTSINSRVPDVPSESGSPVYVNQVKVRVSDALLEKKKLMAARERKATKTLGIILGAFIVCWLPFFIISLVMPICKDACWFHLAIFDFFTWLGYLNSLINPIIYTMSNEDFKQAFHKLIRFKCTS

[7] = biological target: M2 (Homo sapiens, UniProt P08172); assay: In vitro radioligand binding assay, M2
Chain of M2 (P08172 whole entry): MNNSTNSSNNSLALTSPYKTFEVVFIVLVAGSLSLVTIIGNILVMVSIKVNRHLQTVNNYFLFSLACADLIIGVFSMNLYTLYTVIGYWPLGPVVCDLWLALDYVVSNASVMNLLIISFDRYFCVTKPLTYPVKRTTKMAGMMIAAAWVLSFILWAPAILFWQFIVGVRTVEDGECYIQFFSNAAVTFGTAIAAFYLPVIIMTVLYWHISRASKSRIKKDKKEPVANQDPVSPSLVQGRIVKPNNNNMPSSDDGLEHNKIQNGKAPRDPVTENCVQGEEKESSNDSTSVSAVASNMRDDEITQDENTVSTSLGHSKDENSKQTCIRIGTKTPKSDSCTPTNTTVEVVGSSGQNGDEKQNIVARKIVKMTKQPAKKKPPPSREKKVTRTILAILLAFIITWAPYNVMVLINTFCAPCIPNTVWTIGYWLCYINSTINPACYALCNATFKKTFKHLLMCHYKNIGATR

[8] = tested on: Long-Evans derived rats; assay: Porsolt forced swim test; format: in vivo, rat; conditions: for Mean Immobility Time (% of Total) ± SEM, Day 2 Study: 3 administrations
Description: Performance in the Porsolt forced swim test was evaluated for sertraline and Compound P following protocols outlined in Porsolt R. D., et al., Arch. Int. Pharmacodyn., 229: 327 ([…]).
The Porsolt forced swim test is a model of “behavioral despair”, which has been used as an in vivo model for assessing potential antidepressant-like activity. Both test articles were dissolved in physiological saline (vehicle) and administered intraperitoneally. […] Long-Evans derived rats were used.

[9] = tested on: Long-Evans derived rats; assay: Spontaneous locomotor activity study; format: in vivo, rat; conditions: mean ± SEM
Description: The effects on locomotor activity were studied in Long-Evans derived rats following protocol outlined in Dews P., Br. J. Pharmacol., 8: 46 (1953).
This effect was still evident 2 hours following drug administration. On the basis of these studies, CNS effects and long duration of action may be anticipated at sufficient clinical doses.

[10] = biological target: hERG channel (Homo sapiens, UniProt Q12809); assay: hERG channel current in stably transfected HEK293 cells
Chain of hERG channel (Q12809 whole entry): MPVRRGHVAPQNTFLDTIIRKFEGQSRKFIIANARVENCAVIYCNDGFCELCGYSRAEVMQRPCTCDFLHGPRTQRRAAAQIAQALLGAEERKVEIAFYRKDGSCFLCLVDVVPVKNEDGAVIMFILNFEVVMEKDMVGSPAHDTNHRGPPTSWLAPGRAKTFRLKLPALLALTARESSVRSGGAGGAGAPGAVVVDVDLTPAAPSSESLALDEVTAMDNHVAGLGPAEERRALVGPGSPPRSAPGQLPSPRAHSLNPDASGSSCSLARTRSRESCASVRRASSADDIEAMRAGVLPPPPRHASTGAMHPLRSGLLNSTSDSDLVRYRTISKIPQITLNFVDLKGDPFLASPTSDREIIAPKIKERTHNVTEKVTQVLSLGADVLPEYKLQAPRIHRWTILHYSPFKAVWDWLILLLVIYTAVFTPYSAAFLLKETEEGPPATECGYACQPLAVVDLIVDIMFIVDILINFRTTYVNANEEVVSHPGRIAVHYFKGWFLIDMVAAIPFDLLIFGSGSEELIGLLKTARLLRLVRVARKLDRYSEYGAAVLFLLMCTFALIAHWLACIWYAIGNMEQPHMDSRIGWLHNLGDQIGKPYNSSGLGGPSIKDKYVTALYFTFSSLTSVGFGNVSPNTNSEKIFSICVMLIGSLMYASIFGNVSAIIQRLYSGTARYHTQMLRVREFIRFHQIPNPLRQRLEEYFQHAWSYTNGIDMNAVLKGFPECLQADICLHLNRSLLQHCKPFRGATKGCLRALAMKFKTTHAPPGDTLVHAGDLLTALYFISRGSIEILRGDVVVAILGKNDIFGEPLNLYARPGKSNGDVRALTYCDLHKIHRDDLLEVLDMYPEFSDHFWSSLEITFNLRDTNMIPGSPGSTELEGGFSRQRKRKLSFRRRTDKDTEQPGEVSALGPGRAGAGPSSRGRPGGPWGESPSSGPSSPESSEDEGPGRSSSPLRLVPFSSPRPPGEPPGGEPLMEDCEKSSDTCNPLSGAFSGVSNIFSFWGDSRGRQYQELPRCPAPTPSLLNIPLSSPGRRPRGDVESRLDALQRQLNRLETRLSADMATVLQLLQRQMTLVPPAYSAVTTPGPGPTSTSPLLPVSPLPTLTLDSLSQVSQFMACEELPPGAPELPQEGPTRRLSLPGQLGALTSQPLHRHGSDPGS
Description: Studies were conducted to determine effects on IKr, the rapidly activating delayed rectifier cardiac potassium current in the human heart. […] In this assay system, HERG channel current serves as a surrogate for IKr.

`CN[C@H]1CC[C@@H](c2ccc(Cl)c(Cl)c2)c2ccccc21` [Sertraline, (1S,4S)-cis 4-(3,4-dichlorophenyl)-1,2,3,4-tetrahydro-N-methyl-1-napthalenamine, reference compound] was tested, and the Ki [1] was 2400 nM, the “effect on heart rate, blood pressure or ECG parameters (including QTc)” value [2] was “no effect” and the Ki [3] was 2000 nM. It also gave a Ki [4] of 5600 nM, a Ki [5] of 1600 nM and a Ki [6] of 8500 nM. For the same molecule, the Ki [7] was 3700 nM, the “Mean Immobility Time (% of Total) ± SEM, Day 2 Study” value ([8]; 2.5 mg/kg i.p.) was 86 ± 3 % of Total and the “Mean Immobility Time (% of Total) ± SEM, Day 4 Study” value ([8]; 2.5 mg/kg i.p., 7 administrations) was 78 ± 3 % of Total. The “Mean Immobility Time (% of Total) ± SEM, Day 2 Study” value ([8]; 5.0 mg/kg i.p.) was 77 ± 2 % of Total, the “Mean Immobility Time (% of Total) ± SEM, Day 4 Study” value ([8]; 5.0 mg/kg i.p., 7 administrations) was 64 ± 2 % of Total and the “Mean Immobility Time (% of Total) ± SEM, Day 2 Study” value ([8]; 10.0 mg/kg i.p.) was 72 ± 3 % of Total. For the same molecule, the “Mean Immobility Time (% of Total), Day 4 Study” value ([8]; 10.0 mg/kg i.p., 7 administrations, error is std dev (N = 2)) was 70 ± 4 % of Total, the “Total Activity Counts, 71–80 Minutes” value ([9]; 2.5 mg/kg single i.p. dose) was 34 ± 9 and the “Total Activity Counts, 91–100 Minutes” value ([9]; 2.5 mg/kg single i.p. dose) was 25 ± 9. The “Total Activity Counts, 111–120 Minutes” value ([9]; 2.5 mg/kg single i.p. dose) was 30 ± 10, the “Total Activity Counts, Total 1st Hour” value ([9]; 2.5 mg/kg single i.p. dose) was 559 ± 57^2 and the “Total Activity Counts, Total 2nd Hour” value ([9]; 2.5 mg/kg single i.p. dose) was 211 ± 60. For the same molecule, the “Total Activity Counts, 71–80 Minutes” value ([9]; 5.0 mg/kg single i.p. dose) was 32 ± 11, the “Total Activity Counts, 91–100 Minutes” value ([9]; 5.0 mg/kg single i.p. dose) was 14 ± 9 and the “Total Activity Counts, 111–120 Minutes” value ([9]; 5.0 mg/kg single i.p. dose) was 16 ± 11. The “Total Activity Counts, Total 1st Hour” value ([9]; 5.0 mg/kg single i.p. dose) was 327 ± 55, the “Total Activity Counts, Total 2nd Hour” value ([9]; 5.0 mg/kg single i.p. dose) was 95 ± 41 and the IC50 [10] was 1100 nM.
